{"source": "ChEMBL document CHEMBL1135286", "about": "“Synthesis and in vitro evaluation of a novel iodinated resiniferatoxin derivative that is an agonist at the human vanilloid VR1 receptor” (Bioorg Med Chem Lett, 2002)", "key": {"[1]": {"biological_target": "T1, Transient receptor potential cation channel subfamily V member 1 (Homo sapiens, UniProt Q8NER1)", "T1 sequence (Q8NER1 whole entry)": "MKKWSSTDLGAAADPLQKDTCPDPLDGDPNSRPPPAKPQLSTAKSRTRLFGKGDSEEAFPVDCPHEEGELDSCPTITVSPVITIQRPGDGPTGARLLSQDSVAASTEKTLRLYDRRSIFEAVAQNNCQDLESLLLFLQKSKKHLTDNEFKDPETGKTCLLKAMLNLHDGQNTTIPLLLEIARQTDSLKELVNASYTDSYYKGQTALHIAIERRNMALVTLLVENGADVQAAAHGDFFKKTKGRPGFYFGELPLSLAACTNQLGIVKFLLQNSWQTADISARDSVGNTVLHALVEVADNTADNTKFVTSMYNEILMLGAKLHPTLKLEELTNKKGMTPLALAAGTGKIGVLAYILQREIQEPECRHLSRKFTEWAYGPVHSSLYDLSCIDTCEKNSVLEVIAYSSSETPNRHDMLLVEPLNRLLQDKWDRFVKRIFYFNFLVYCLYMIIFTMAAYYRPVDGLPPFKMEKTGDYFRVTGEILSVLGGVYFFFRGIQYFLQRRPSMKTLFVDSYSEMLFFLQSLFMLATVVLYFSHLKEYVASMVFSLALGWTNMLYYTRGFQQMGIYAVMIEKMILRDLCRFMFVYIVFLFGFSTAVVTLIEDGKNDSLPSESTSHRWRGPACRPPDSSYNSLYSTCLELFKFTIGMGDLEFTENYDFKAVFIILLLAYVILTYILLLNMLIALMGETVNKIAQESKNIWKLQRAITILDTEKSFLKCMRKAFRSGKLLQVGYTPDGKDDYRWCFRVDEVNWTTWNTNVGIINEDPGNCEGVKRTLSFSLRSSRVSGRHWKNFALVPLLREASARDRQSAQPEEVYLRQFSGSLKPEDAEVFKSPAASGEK", "assay": "Induced [Ca2+] influx in Vanilloid receptor subtype 1 expressing HEK 293 cells", "format": "functional, cell-based, HEK293"}, "[2]": {"biological_target": "T1, Transient receptor potential cation channel subfamily V member 1", "assay": "Percent induction of [Ca2+] influx compared to subsequent 80% maximal capsaicin response in human vanilloid receptor 1 expressing HEK293 cells", "format": "functional, cell-based"}, "[3]": {"biological_target": "T1, Transient receptor potential cation channel subfamily V member 1", "assay": "Inhibition of [3H]RTX binding to human Vanilloid receptor subtype 1 expressed in HEK293 cells", "format": "cell-based"}, "[4]": {"biological_target": "Transient receptor potential cation channel subfamily V member 1 (Rattus norvegicus) (UniProt O35433)", "sequence (O35433 whole entry)": "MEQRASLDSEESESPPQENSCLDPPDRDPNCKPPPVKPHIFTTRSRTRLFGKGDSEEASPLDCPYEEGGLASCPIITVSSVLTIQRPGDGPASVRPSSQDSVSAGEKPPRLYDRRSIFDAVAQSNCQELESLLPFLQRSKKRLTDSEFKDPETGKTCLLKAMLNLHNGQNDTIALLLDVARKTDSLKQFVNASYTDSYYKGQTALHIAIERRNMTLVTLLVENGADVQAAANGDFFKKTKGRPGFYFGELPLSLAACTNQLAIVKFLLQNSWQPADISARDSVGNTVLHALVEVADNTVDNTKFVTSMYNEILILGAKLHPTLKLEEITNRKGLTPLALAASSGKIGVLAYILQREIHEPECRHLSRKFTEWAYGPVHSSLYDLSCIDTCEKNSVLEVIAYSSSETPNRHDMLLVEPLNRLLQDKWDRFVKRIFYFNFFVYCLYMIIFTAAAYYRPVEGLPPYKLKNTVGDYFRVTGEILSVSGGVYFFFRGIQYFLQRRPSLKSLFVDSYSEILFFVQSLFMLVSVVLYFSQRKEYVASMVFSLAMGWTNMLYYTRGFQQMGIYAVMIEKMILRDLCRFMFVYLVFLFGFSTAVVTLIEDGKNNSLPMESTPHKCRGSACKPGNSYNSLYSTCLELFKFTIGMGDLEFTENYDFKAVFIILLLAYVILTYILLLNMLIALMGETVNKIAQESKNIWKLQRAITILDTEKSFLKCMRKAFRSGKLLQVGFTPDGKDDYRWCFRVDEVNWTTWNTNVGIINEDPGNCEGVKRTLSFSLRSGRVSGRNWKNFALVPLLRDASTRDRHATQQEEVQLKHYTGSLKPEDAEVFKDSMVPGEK", "assay": "Percent induction of [Ca2+] influx compared to subsequent 80% maximal capsaicin response in rat Vanilloid receptor 1 expressing HEK293 cells", "format": "functional, cell-based"}}, "data": [{"smiles": "C=C(C)[C@]12C[C@@H](C)[C@@]34O[C@](Cc5ccccc5)(O[C@@H]1[C@@H]3C=C(COC(=O)Cc1cc(OC)c(OC(C)=O)cc1I)C[C@]1(O)C(=O)C(C)=C[C@@H]41)O2", "values": [{"measurement": "EC50", "setting": "[1]", "result": 935, "unit": "nM"}, {"measurement": "Efficacy", "setting": "[2]", "result": 75, "unit": "%"}, {"measurement": "Ki", "setting": "[3]", "result": 1.46, "unit": "nM"}]}, {"smiles": "C=C(C)[C@]12C[C@@H](C)[C@@]34OC(Cc5ccccc5)(O[C@@H]1[C@@H]3C=C(COC(=O)Cc1ccc(O)c(OC)c1I)C[C@]1(O)C(=O)C(C)=C[C@@H]41)O2", "values": [{"measurement": "IC50", "setting": "[1]", "result": 27, "unit": "nM"}, {"measurement": "Ki", "setting": "[3]", "result": 1.4, "unit": "nM"}]}, {"smiles": "C=C(C)[C@]12C[C@@H](C)[C@@]34O[C@](Cc5ccccc5)(O[C@@H]1[C@@H]3C=C(COC(=O)Cc1ccc(O)c(OC)c1)C[C@]1(O)C(=O)C(C)=CC41)O2", "note": "(single isomer, unassigned) [RESINIFERATOXIN]", "values": [{"measurement": "EC50", "setting": "[1]", "result": 1.9, "unit": "nM"}, {"measurement": "Efficacy", "setting": "[2]", "result": 116, "unit": "%"}, {"measurement": "Ki", "setting": "[3]", "result": 0.48, "unit": "nM"}]}, {"smiles": "C=C(C)[C@]12C[C@@H](C)[C@@]34O[C@](Cc5ccccc5)(O[C@@H]1[C@@H]3C=C(COC(=O)Cc1cc(OC)c(O)cc1I)C[C@]1(O)C(=O)C(C)=C[C@@H]41)O2", "values": [{"measurement": "EC50", "setting": "[1]", "result": 130, "unit": "nM"}, {"measurement": "Efficacy", "setting": "[2]", "result": 50, "unit": "%"}, {"measurement": "Ki", "setting": "[3]", "result": 0.71, "unit": "nM"}, {"measurement": "Efficacy", "setting": "[4]", "result": 92, "unit": "%"}]}]}
